{"source": "ChEMBL document CHEMBL3352622", "about": "“Folded structure and insertion depth of the frog-skin antimicrobial Peptide esculentin-1b(1-18) in the presence of differently charged membrane-mimicking micelles” (J Nat Prod, 2014)", "tested_on": "Human alphaherpesvirus 1", "test": "Antiviral activity against HSV-1 assessed as reduction in infectivity in African green monkey Vero cells after 2 hrs by virus yield reduction assay", "type": "functional, organism-based", "note": "Activity calls are given as the source filed them. The rule behind the calls is not given here. Where a SMILES comes first, the peptide text is derived from it."}
{"smiles": "CC[C@H](C)[C@H](NC(=O)CN)C(=O)N[C@@H](Cc1ccccc1)C(=O)N[C@@H](CO)C(=O)N[C@@H](CCCCN)C(=O)N[C@@H](CC(C)C)C(=O)N[C@@H](C)C(=O)NCC(=O)N[C@@H](CCCCN)C(=O)N[C@@H](CCCCN)C(=O)N[C@@H](CC(C)C)C(=O)N[C@@H](CCCCN)C(=O)N[C@@H](CC(N)=O)C(=O)N[C@@H](CC(C)C)C(=O)N[C@@H](CC(C)C)C(=O)N[C@H](C(=O)N[C@@H](CO)C(=O)NCC(N)=O)[C@@H](C)CC", "note": "(H-GIFSKLAGKKLKNLLISG-NH2)", "values": [{"measurement": "Activity", "result": "inactive"}]}
